Measurements published in US20240208932A1, “ARYLAMINO DERIVATIVE ESTROGEN RECEPTOR MODULATOR AND USE THEREOF” (XIZANG HAISCO PHARMACEUTICAL CO., LTD., priority 2021, published 2024).

Tests used:
[1] = target: CYP2D6 (Homo sapiens (Human), UniProt P10635); assay: CYP450 enzyme inhibition test, human liver microsomes; type: in vitro ADME; settings: incubation concentration 0-50/100 μM
Procedure: (§1) 6. CYP450 Enzyme Inhibition Test
(§2) The purpose of this study was to evaluate the effect of the test compound on the activity of five isoenzymes (CYP1A2, CYP2C9, CYP2C19, CYP2D6 and CYP3A4) of human liver microsomal cytochrome P450 (CYP) by using an in vitro testing system. The specific probe substrates of CYP450 isoenzymes were incubated with human liver microsomes and test compounds of different concentrations, and reduced nicotinamide adenine dinucleotide phosphate (NADPH) was added to initiate the reaction. After the completion of the reaction, the sample was treated and liquid chromatography-tandem mass spectrometry (LC-MS/MS) was used to quantitatively detect metabolites produced by specific substrates, changes in CYP enzyme activity were determined, and IC50 value was calculated to evaluate the inhibitory potential of the test compound on each CYP enzyme subtype.

[2] = target: CYP3A4 (Homo sapiens (Human), UniProt P08684); assay: as above; type: in vitro ADME; settings: incubation concentration 0-50/100 μM, read-out: IC50 CYP3A-M
Procedure: as §1, §2

[3] = target: CYP2C9 (Homo sapiens (Human), UniProt P11712); assay: as above; type: in vitro ADME; settings: incubation concentration 0-50/100 μM
Procedure: as §1, §2

[4] = target: CYP1A2 (Homo sapiens (Human), UniProt P05177); assay: as above; type: in vitro ADME; settings: incubation concentration 0-50/100 μM
Procedure: as §1, §2

[5] = target: hERG potassium ion channel (Homo sapiens (Human), UniProt Q12809); assay: Test for hERG potassium ion channel (manual patch-clamp, CHO cells); type: cell-based; settings: for IC50: CHO cells stably expressing hERG, whole cell patch-clamp, read-out: IC50 on hERG potassium channel current; for inhibition at 40 µM: human, CHO cells stably expressing hERG potassium channel, hERG potassium channel current, read-out: Inhibition rate at the highest concentration tested
Excerpt: 5. Test for hERG Potassium Ion Channel
Test platform: electrophysiological manual patch-clamp system
Cell line: Chinese hamster ovary (CHO) cell lines stably expressing hERG potassium ion channel Test method: In CHO (Chinese Hamster Ovary) cells stably expressing hERG potassium channel, whole cell patch-clamp technique was used to record hERG potassium channel current at room temperature. The glass microelectrode was made of a glass electrode blank (BF150-86-10, Sutter) by a puller. The tip resistance after filling the liquid in the electrode was about 2-5 MΩ. The glass microelectrode can be connected to the patch-clamp amplifier by inserting the glass microelectrode into an amplifier probe. The clamping voltage and data recording were controlled and recorded by the pClamp 10 software through a computer. The sampling frequency was 10 kHz, and the filtering frequency was 2 kHz. After the whole cell records were obtained, the cells were clamped at −80 mV, and the step voltage that induced the hERG potassium current (I hERG) was depolarized from −80 mV to +20 mV for 2 s, then repolarized to −50 mV, and returned to −80 mV after 1 s. This voltage stimulation was given every 10 s, and the administration process was started after the hERG potassium current was confirmed to be stable (at least 1 minute). The compound was administered for at least 1 minute at each test concentration, and at least 2 cells ([…]) were tested at each concentration.
Data processing: Data analysis processing was carried out by using pClamp 10, GraphPad Prism 5 and Excel software. The inhibition degree of hERG potassium current (peak value of hERG tail current induced at −50 mV) at different compound concentrations was calculated by the following formula:
Inhibition %=[1−(I/Io)]×100% wherein, Inhibition % represents the percentage of inhibition of hERG potassium current by the compound, and I and Io represent the amplitude of hERG potassium current after and before dosing, respectively.
IC50 for the compound was calculated using GraphPad Prism 5 software by fitting according to the following equation:
Y=Bottom+(Top−Bottom)/(1+10^((LogIC50−X)*HillSlope)) wherein, X represents the Log value of the tested concentration of the test sample, Y represents the inhibition percentage at the corresponding concentration, and Bottom and Top represent the minimum and maximum inhibition percentage, respectively.

[6] = Pharmacokinetic test in mice; type: in vivo; settings: male, ICR, mouse, plasma; for Vd: read-out: Vdss
Procedure: 4. Pharmacokinetic Test in Mice
4.1 Experimental animals: male ICR mice, 20-25 g, 18 mice/compound. purchased from Chengdu Ddossy Experimental Animals Co., Ltd.
4.2 Experimental design: on the day of the test, 72 ICR mice were randomly grouped according to their body weights. the animals were fasted with water available for 12 to 14 h one day before the administration, and were fed 4 h after the administration;
(§3) Before and after the administration, 0.06 mL of blood was taken from the orbit of the animals under isoflurane anesthesia and placed in an EDTAK2 centrifuge tube. The blood was centrifuged at 5000 rpm and 4° C. for 10 min to collect plasma. The blood collection time points for the intravenous group and intragastric administration 5 group were: 0 min, 5 min, 15 min, 30 min, 1 h, 2 h, 4 h, 6 h, 8 h, and 24 h. Before analysis and detection, all samples were stored at −80° C., and a quantitative analysis of samples was performed using LC-MS/MS.

[7] = Pharmacokinetic test in rats; type: in vivo; settings: male, SD, rat, plasma; for Vd: read-out: Vdss
Procedure: 3. Pharmacokinetic Test in Rats
3.1 Experimental animals: male SD rats, about 220 g, 6-8 weeks old, 6 rats/compound, purchased from Chengdu Ddossy Experimental Animals Co., Ltd.
3.2 Experimental design: on the day of the test, 24 SD rats were randomly grouped according to their body weight; the animals were fasted with water available for 12 to 14 h one day before the administration, and were fed 4 h after the administration;
(DMA: dimethylacetamide; Solutol: Polyethylene glycol-15-hydroxystearate; Saline: Normal saline; MC: methylcellulose)
as §3, with “administration, 0.15 ml” for “administration, 0.06 mL”, “intravenous administration” for “intravenous”, “administration” for “administration 5”, “were: 0,” for “were: 0 min,”

Chain of CYP2D6 (P10635 whole entry): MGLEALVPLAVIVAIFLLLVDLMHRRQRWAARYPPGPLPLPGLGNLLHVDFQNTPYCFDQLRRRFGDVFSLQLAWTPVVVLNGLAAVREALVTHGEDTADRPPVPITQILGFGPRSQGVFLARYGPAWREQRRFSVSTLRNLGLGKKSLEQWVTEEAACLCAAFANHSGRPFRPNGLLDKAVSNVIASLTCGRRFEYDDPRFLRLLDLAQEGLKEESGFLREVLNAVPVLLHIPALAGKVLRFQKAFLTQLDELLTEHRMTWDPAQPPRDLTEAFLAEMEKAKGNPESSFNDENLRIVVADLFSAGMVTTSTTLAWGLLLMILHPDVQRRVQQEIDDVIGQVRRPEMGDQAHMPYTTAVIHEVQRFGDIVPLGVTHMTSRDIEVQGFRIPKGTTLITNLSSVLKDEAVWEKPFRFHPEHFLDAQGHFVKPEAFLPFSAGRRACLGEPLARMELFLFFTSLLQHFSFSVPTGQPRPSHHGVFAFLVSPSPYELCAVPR
Chain of hERG potassium ion channel (Q12809 whole entry): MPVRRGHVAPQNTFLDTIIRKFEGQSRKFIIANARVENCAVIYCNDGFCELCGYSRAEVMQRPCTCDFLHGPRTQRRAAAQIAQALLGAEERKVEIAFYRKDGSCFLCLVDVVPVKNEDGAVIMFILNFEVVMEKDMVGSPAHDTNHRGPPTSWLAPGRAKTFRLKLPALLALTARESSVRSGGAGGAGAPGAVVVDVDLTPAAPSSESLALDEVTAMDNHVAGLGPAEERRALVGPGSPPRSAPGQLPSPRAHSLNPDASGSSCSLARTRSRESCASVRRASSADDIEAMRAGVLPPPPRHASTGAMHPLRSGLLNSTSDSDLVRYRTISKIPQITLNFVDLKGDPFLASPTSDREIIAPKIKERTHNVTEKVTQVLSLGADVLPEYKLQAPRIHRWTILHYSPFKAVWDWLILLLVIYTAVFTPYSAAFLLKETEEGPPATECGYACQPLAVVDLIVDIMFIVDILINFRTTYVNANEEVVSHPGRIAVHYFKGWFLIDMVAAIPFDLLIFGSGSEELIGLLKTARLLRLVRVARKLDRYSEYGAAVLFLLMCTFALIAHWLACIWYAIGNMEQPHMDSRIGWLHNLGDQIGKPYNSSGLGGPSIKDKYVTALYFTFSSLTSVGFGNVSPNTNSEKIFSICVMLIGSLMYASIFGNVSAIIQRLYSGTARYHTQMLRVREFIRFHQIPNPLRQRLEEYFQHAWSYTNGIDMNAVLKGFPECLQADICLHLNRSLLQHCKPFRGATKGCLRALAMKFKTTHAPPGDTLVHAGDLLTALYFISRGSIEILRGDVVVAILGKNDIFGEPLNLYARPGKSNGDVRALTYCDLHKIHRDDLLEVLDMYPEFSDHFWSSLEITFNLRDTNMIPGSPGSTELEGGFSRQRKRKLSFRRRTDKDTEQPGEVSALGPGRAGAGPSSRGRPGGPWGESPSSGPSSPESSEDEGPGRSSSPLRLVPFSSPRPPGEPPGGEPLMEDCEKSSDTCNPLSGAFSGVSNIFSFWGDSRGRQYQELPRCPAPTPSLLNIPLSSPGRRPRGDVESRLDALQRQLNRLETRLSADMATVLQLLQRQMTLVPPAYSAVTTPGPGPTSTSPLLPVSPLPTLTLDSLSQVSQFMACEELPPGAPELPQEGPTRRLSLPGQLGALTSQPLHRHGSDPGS
Chain of CYP3A4 (P08684 whole entry): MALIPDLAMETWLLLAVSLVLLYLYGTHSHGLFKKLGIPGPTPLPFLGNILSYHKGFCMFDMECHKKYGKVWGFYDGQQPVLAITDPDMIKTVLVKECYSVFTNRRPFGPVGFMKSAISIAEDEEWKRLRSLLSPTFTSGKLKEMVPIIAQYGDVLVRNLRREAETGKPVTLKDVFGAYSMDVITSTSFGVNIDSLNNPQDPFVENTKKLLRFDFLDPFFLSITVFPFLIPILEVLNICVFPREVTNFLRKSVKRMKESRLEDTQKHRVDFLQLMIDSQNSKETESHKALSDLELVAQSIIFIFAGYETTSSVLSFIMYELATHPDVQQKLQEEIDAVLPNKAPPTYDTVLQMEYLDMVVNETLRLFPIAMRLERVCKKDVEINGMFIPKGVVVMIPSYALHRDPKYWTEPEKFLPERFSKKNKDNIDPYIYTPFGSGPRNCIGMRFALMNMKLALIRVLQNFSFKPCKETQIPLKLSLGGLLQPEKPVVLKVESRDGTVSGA
Chain of CYP1A2 (P05177 whole entry): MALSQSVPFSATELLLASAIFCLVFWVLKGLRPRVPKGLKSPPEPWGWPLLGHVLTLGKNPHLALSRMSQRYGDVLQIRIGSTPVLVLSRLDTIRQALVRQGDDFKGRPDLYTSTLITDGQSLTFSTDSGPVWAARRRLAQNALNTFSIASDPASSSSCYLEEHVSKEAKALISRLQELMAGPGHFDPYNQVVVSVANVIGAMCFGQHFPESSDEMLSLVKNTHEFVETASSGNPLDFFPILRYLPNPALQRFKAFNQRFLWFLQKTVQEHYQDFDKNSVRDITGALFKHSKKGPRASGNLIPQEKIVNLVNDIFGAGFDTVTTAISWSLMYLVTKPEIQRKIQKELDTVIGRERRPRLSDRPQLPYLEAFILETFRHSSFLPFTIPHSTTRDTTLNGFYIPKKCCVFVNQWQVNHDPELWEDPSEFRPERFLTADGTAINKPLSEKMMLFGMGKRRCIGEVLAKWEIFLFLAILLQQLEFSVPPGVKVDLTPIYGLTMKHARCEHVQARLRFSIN
Chain of CYP2C9 (P11712 whole entry): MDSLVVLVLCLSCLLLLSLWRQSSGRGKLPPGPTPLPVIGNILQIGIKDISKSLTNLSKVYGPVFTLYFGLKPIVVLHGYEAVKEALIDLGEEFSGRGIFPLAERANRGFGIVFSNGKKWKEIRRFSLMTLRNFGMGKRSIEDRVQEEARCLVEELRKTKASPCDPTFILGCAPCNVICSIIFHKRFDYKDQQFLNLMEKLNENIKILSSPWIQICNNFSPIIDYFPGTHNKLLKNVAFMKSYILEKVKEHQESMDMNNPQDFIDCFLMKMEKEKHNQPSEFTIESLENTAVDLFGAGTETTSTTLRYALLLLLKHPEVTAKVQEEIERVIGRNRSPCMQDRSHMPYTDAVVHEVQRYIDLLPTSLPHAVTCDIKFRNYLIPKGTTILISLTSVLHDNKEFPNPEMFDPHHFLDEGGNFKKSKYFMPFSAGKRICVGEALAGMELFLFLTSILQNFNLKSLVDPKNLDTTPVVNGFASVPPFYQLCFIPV

Which results are given for `C[C@@H]1Cc2c([nH]c3ccc(F)cc23)[C@@H](c2c(F)cc(N[C@H]3CCN(CCCF)C3)cc2F)N1CC(F)(F)F` [Compound 18, (S)—N-(3,5-difluoro-4-((1R,3R)-6-fluoro-3-methyl-2-(2,2,2-trifluoroethyl)-2,3,4,9-tetrahydro-1H-pyrido[3,4-b]indol-1-yl)phenyl)-1-(3-fluoropropyl)pyrrolidin-3-amine]?
IC50 [1]: 34.1 µM; IC50 [2]: 15.7 µM; IC50 [3]: 20 µM; IC50 [4]: > 100 µM; IC50 [5]: 2.82 µM; inhibition at 40 µM [5]: 100 ± 1.79%; AUC(0-t) ([6]; iv, i.v. (5 mg/kg)): 3810 ng·h/mL; clearance ([6]; iv, i.v. (5 mg/kg)): 15 mL/min/kg; Vd ([6]; iv, i.v. (5 mg/kg)): 18.2 L/kg; bioavailability ([6]; po, i.g. (10 mg/kg)): 74.3%; AUC(0-t) ([6]; po, i.g. (10 mg/kg)): 5650 ng·h/mL; AUC(0-t) ([7]; iv, i.v. (2.5 mg/kg)): 2070 ± 294 ng·h/mL; clearance ([7]; iv, i.v. (2.5 mg/kg)): 16.9 ± 4 mL/min/kg; Vd ([7]; iv, i.v. (2.5 mg/kg)): 12.2 ± 1.5 L/kg; bioavailability ([7]; po, i.g. (10 mg/kg)): 55 ± 13%; AUC(0-t) ([7]; po, i.g. (10 mg/kg)): 4560 ± 1040 ng·h/mL

With `C#Cc1ccc2c3c([nH]c2c1)[C@@H](c1c(F)cc(N[C@H]2CCN(CCCF)C2)cc1F)N(CC(F)(F)F)[C@H](C)C3` [Compound 43, (S)—N-(4-((1R,3R)-7-ethynyl-3-methyl-2-(2,2,2-trifluoroethyl)-2,3,4,9-tetrahydro-1H-pyrido[3,4-b]indol-1-yl)-3,5-difluorophenyl)-1-(3-fluoropropyl)pyrrolidin-3-amine] as the compound, how does the IC50 [1] read?
Its IC50 is 21.5 µM.

What about the IC50 [2] of the same compound?
The IC50 was > 12.7 µM.

And the IC50 [3]?
The IC50 was > 42.8 µM.

What about the IC50 [4] of the same compound?
Its IC50 is 41.6 µM.

What about the IC50 [5] of the same compound?
Its IC50 is 12.3 µM.

What about the inhibition at 40 µM [5] of the same compound?
The inhibition at 40 µM was 98.28 ± 0.93%.

What about the AUC(0-t) ([6]; iv, i.v. (5 mg/kg)) of the same compound?
Its AUC(0-t) is 10200 ng·h/mL.

And the clearance ([6]; iv, i.v. (5 mg/kg))?
The clearance was 8.21 mL/min/kg.

And the Vd ([6]; iv, i.v. (5 mg/kg))?
The Vd was 16.6 L/kg.

And the bioavailability ([6]; po, i.g. (10 mg/kg))?
Its bioavailability is 50.2%.

What about the AUC(0-t) ([6]; po, i.g. (10 mg/kg)) of the same compound?
Its AUC(0-t) is 10200 ng·h/mL.

And the AUC(0-t) ([7]; iv, i.v. (2.5 mg/kg))?
The AUC(0-t) was 1570 ± 143 ng·h/mL.

What about the clearance ([7]; iv, i.v. (2.5 mg/kg)) of the same compound?
Its clearance is 20.8 ± 2 mL/min/kg.

And the Vd ([7]; iv, i.v. (2.5 mg/kg))?
Its Vd is 18.1 ± 2.1 L/kg.

And the bioavailability ([7]; po, i.g. (10 mg/kg))?
Its bioavailability is 51 ± 2.1%.

And the AUC(0-t) ([7]; po, i.g. (10 mg/kg))?
The AUC(0-t) was 3200 ± 129 ng·h/mL.

For `C[C@@H]1Cc2c([nH]c3cc(F)ccc23)[C@@H](c2c(F)cc(N[C@H]3CCN(CCCF)C3)cc2F)N1CC(F)(F)F` [Compound 32, (S)—N-(3,5-difluoro-4-((1R,3R)-7-fluoro-3-methyl-2-(2,2,2-trifluoroethyl)-2,3,4,9-tetrahydro-1H-pyrido[3,4-b]indol-1-yl)phenyl)-1-(3-fluoropropyl)pyrrolidin-3-amine], which IC50 [1] is on record?
Its IC50 is 23.4 µM.

What about the IC50 [2] of the same compound?
The IC50 was 18.9 µM.

What about the IC50 [3] of the same compound?
The IC50 was 19.5 µM.

And the IC50 [4]?
The IC50 was > 100 µM.

What about the IC50 [5] of the same compound?
The IC50 was 4.14 µM.

What about the inhibition at 40 µM [5] of the same compound?
Its inhibition at 40 µM is 100.2 ± 0.74%.

And the AUC(0-t) ([6]; iv, i.v. (5 mg/kg))?
The AUC(0-t) was 3360 ng·h/mL.

What about the clearance ([6]; iv, i.v. (5 mg/kg)) of the same compound?
The clearance was 16.3 mL/min/kg.

And the Vd ([6]; iv, i.v. (5 mg/kg))?
Its Vd is 21.6 L/kg.

And the bioavailability ([6]; po, i.g. (10 mg/kg))?
Its bioavailability is 65.6%.

And the AUC(0-t) ([6]; po, i.g. (10 mg/kg))?
The AUC(0-t) was 4410 ng·h/mL.

And the AUC(0-t) ([7]; iv, i.v. (2.5 mg/kg))?
Its AUC(0-t) is 853 ± 48 ng·h/mL.

What about the clearance ([7]; iv, i.v. (2.5 mg/kg)) of the same compound?
The clearance was 39.2 ± 2.8 mL/min/kg.

And the Vd ([7]; iv, i.v. (2.5 mg/kg))?
The Vd was 31.4 ± 5.9 L/kg.

And the bioavailability ([7]; po, i.g. (10 mg/kg))?
Its bioavailability is 57.6 ± 14%.

What about the AUC(0-t) ([7]; po, i.g. (10 mg/kg)) of the same compound?
The AUC(0-t) was 1970 ± 469 ng·h/mL.
